Measured values reported in patent US6387849B1, “Herbicidal hydroximic acid derivatives” (BASF Aktiengesellschaft, priority 1997, dated 2002).

Work on `CO/N=C(\OC)c1cc(-n2c(=O)cc(C(F)(F)F)n(C)c2=O)c(F)cc1Cl` [Compound 4.01, 3-[2-fluoro-4-chloro-5-methoxyimino-(methoxy)methylphenyl]-2,4-dioxo-1-methyl-6-trifluoromethyl-1,2,3,4-tetrahydropyrimidine] yielded a melting point of 122 to 124 °C.
